In paper PMC10581520 (Veterinární Medicína, 2023):
Where “and” joins values, the source holds several entries; their conditions need not be identical. Equal values may be shown once. Read-outs that look alike come from different tables or passages of the source. Values belong to the molecule of their own block, whether it stands above or below them.

Assays:
[1] = Kinetic study: N-demethylation of CIT and DCIT in Beagle dog liver microsomes; assay type: in vitro ADME; conditions: Beagle, dog, liver microsomes, pH 7.4
[2] = system: Beagle dog liver microsomes; test: as above; assay type: in vitro ADME; conditions: for IC of N-demethylation, Beagle dogs versus humans: liver microsomes, dog data of this study compared with literature human data; for Km1 / Km2 / Vmax1 / Vmax2: dog liver microsomes
[3] = in dogs; ref Matsui et al. 1995; cited from earlier work
[4] = system: Beagle dogs; conditions: cited from earlier work
[5] = system: patients; conditions: cited from earlier work; for arrhythmia risk category: associated risk of arrhythmia and possible TdP risk, ref Fanoe et al. 2014; for effect on QTc-interval and risk for torsades de pointes (TdP): patients; for risk group classification: ref www.crediblemeds.org
[6] = system: Human liver microsomes; conditions: cited from earlier work
[7] = system: dog liver microsomes (CYP2D15, CYP3A12, CYP2C21/41); assay type: in vitro ADME, Beagle dog; conditions: for effect on the production of the DCIT and DDCIT enantiomers: dog liver microsomes, data not shown
[8] = system: N-demethylation of DCIT; CYP2D15 (quinidine); assay type: in vitro ADME, Beagle dog; conditions: Beagle, dog, liver microsomes
[9] = system: N-demethylation of DCIT; CYP3A12 (ketoconazole), CYP2C21/41 (omeprazole); assay type: in vitro ADME, Beagle dog; conditions: Beagle, dog, liver microsomes, pH 7.4, probe DCIT 10 and 100 μM, formation of DDCIT
[10] = system: serotonin [5-hydroxytryptamine (5-HT)] reuptake; conditions: compared with S-CIT; ref Hyttel et al. 1992; Hyttel 1993; cited from earlier work
[11] = substrate CIT, metabolite R-DCIT
[12] = substrate CIT, metabolite S-DCIT
[13] = 100 μM quinidine, 10 μM DCIT, n = 3
[14] = substrate DCIT, metabolite DDCIT
[15] = substrate DCIT, metabolite R-DDCIT
[16] = substrate DCIT, metabolite S-DDCIT

Structure (SMILES): CN(C)CCCC1(c2ccc(F)cc2)OCc2cc(C#N)ccc21 (stereo not shown) [CIT, citalopram]
Km at 1 h [1]: ≤ 1.4 µM
IC of N-demethylation, Beagle dogs versus humans [2]: about 10 times higher
Km1 ([2]; substrate CIT, metabolite DCIT): 1.1 µM and 1.1 ± 0.3 µM
Km2 ([2]; substrate CIT, metabolite DCIT): 1 006 μM
Vmax1 ([2]; substrate CIT, metabolite DCIT): 47 ± 3 pmol/(min × mg of protein)
Vmax2 ([2]; substrate CIT, metabolite DCIT): 591 ± 28 pmol/(min × mg of protein)
Km1 [2, 11]: 1.4 ± 0.5 µM
Vmax1 [2, 11]: 21 ± 2 pmol/(min × mg of protein)
Vmax2 [2, 11]: 338 ± 24 pmol/(min × mg of protein)
Km1 [2, 12]: 1.0 ± 0.2 µM
Km2 [2, 12]: 848 ± 69 µM
Vmax1 [2, 12]: 26 ± 1 pmol/(min × mg of protein)
Vmax2 [2, 12]: 264 ± 10 pmol/(min × mg of protein)
mean elimination half-life [3]: 9.6 h
convulsive effect in dogs ([4]; dogs, ref Boeck and Overo 1982): severe convulsive attacks
electrocardiographic changes in dogs ([4]; dogs, ref Boeck and Overo 1982): no electrocardiographic changes were observed
arrhythmia risk category [5]: Class B
effect on QTc-interval and risk for torsades de pointes (TdP) [5]: increase the QTc-interval
risk group classification [5]: risk group 1
Km ([6]; read-out: Km values, stereoselective CIT N-demethylation, human liver microsomes, ref Rochat et al. 1997, Olesen and Linnet 1999, von Moltke et al. 2001): ≥ 17.3 µM

effect on the production of the DCIT and DDCIT enantiomers [7]: did not notably modify
Structure (SMILES): Nc1ccc(S(=O)(=O)Nc2ccnn2-c2ccccc2)cc1 [sulphaphenazole]

inhibition at 1 h, 100 μM ([8]; pH 7.4, probe DCIT 10 μM, formation of R-DDCIT): 80.5%
inhibition at 1 h, 100 μM ([8]; pH 7.4, probe DCIT 10 μM, formation of S-DDCIT): 86.4%
inhibition at 1 h, 100 μM ([8]; pH 7.4, probe DCIT 100 μM, formation of R-DDCIT): 61.6%
inhibition at 1 h, 100 μM ([8]; pH 7.4, probe DCIT 100 μM, formation of S-DDCIT): 57.6%
difference in the production of S-DCIT from CIT in comparison to absence of the inhibitor ([7]; 100 μM quinidine, 10 μM CIT, n = 5): 36.9 ± 8.53 pmol/(min × mg protein)
difference of the production of R-DDCIT in comparison to absence of the inhibitor [7, 13]: 63.3 ± 2.72 pmol/(min × mg protein)
difference of the production of S-DDCIT in comparison to absence of the inhibitor [7, 13]: 172 ± 6.6 pmol/(min × mg protein)
Structure (SMILES): C=C[C@H]1C[N@@]2CC[C@H]1C[C@@H]2[C@@H](O)c1ccnc2ccc(OC)cc12 [quinidine]

inhibition at 1 h [9]: < 15%
Structure (SMILES): CC(=O)N1CCN(c2ccc(OCC3COC(Cn4ccnc4)(c4ccc(Cl)cc4Cl)O3)cc2)CC1 (stereo not shown) [ketoconazole]

Structure (SMILES): CN(C)CCC[C@@]1(c2ccc(F)cc2)OCc2cc(C#N)ccc21 [S-CIT, S-citalopram]
arrhythmia risk category [5]: Class B
effect on QTc-interval and risk for torsades de pointes (TdP) [5]: increase the QTc-interval
risk group classification [5]: risk group 1

Structure (SMILES): CNCCCC1(c2ccc(F)cc2)OCc2cc(C#N)ccc21 (stereo not shown) [DCIT, desmethylcitalopram]
Km at 1 h [1]: ≤ 1.4 µM
IC of N-demethylation, Beagle dogs versus humans [2]: about 30 times higher
Km1 [2, 14]: 0.6 ± 0.2 µM
Km2 [2, 14]: 137 ± 18 µM
Vmax1 [2, 14]: 44 ± 4 pmol/(min × mg of protein)
Vmax2 [2, 14]: 155 ± 5 pmol/(min × mg of protein)
Km1 [2, 15]: 0.3 ± 0.2 µM
Km2 [2, 15]: 212 µM and 212 ± 24 µM
Vmax1 [2, 15]: 11 ± 2 pmol/(min × mg of protein)
Vmax2 [2, 15]: 105 ± 3 pmol/(min × mg of protein)
Km1 [2, 16]: 0.6 ± 0.1 µM
Km2 [2, 16]: 66 µM and 66 ± 11 µM
Vmax1 [2, 16]: 31 ± 3 pmol/(min × mg of protein)
Vmax2 [2, 16]: 55 ± 2 pmol/(min × mg of protein)
mean elimination half-life [3]: 8.1 h
potency as serotonin reuptake inhibitors [10]: lower than that of S-CIT
IC values, N-demethylation of DCIT enantiomers ([6]; humans, ref von Moltke et al. 2001): ≤ 1.3 pmol/(min × mg protein)
Km ([6]; read-out: Km values, N-demethylation of DCIT enantiomers, humans, ref von Moltke et al. 2001): ≥ 72 µM

Structure (SMILES): N#Cc1ccc2c(c1)COC2(CCCN)c1ccc(F)cc1 (stereo not shown) [DDCIT, didesmethylcitalopram]
mean elimination half-life [3]: 27.8 h
plasma level to which DDCIT toxicity is related ([4]; dog, ref Shanks et al. 2009): ≥ 1 000 nM and ≥ 300 ng/ml
potency as serotonin reuptake inhibitors [10]: lower than that of S-CIT

inhibition at 1 h [9]: < 15%
Structure (SMILES): COc1ccc2[nH]c([S+]([O-])Cc3ncc(C)c(OC)c3C)nc2c1 (stereo not shown) [omeprazole]

effect on the production of the DCIT and DDCIT enantiomers [7]: did not notably modify
Structure (SMILES): Cc1nc2c([nH]1)c(=O)n(C)c(=O)n2Cc1ccco1 [furafylline]
